One assay has as its system CXCR1 and CXCR2. The following applies: mice; cited from earlier work.
A further assay deals with db/db mice. The assay is described as follows: KC/CXCR2 axis blockade with Reparixin in db/db diabetic mice (urinary albumin excretion, glycemia, kidney histopathology). The assay is classed as in vivo. An excerpt: Kidneys from db/db mice at 8, 12 and 25 weeks of age were surgically removed using standard techniques. To perform standard light microscopy, kidneys were fixed in 4% buffered paraformaldehyde (PFA), dehydrated, and paraffin-embedded. AxioVision software 4.3 was used to record the images from Periodic Acid Schiff (PAS) and Trichrome staining. The evaluation of mesangial matrix was electronically performed using a macro built on the AxioVision analysis module (Carl Zeiss Spa, Thornwood, NY). Glomeruli were identified as a region of interest (ROI) and mesangium was highlighted by a color threshold protocol. Binary images were then produced and mesangium was automatically calculated as percentage of the glomerular area. Image acquisition was performed with a Zeiss Axioscope 40FL microscope and AxioCam MRc5 digital video camera (Carl Zeiss SpA). AxioVision software 4.3 was used to record images and AxioVision analysis module to analyze the results (Carl Zeiss SpA). In order to assess the potential role of IL8 blockade in DN progression, 7 weeks old db/db mice were treated with Reparixin 15 mg/kg (ip) twice a day for 18 weeks (up to 25 weeks of age). Briefly, animals were housed in metabolic cages (Nalgene) to separate feces and urine within a light-controlled environment and provided with water ad-libitum. Sample collection tubes passed below the cages and through small holes in the bottom of the light controlled environment. Urine samples from db/db mice were collected through a metabolic cage at week 8, 12, and 25. The BeadLyte Mouse Multi-cytokine Beadmaster Kit (Millipore, Billerica, MA) was used according to the manufacturer's protocol to determine cytokine levels of IL8. Briefly, the supernatant was incubated with beads conjugated to the IL8 alone for a specified amount of time, and then with biotinylated reporters and streptavidin-phycoerythrin solution for 30 min. A Luminex100 reader (Luminex Corporation, Austin, TX) was used to measure the sample cytokine level. All in vitro and in vivo experimental data presented herein in the examples were performed in triplicate, unless indicated otherwise. Proteinuria in db/db mice was performed in 10 untreated and 30 treated animals. Prism statistical software (La Jolla, CA—USA) was used for data analysis. […] For discrete variables, χ^2 test was used. For all tests, p<0.05 was considered significant.

A further assay relates to Human podocyte cells. The assay is described as follows: IL8 challenge of human podocytes in vitro (stress fibers, cortical actin, cell blebbing, synaptopodin). The assay is classed as cell-based. The procedure:
Human podocyte cells bearing a transgene for the thermosensitive (ts58A) variant of the SV40 T antigen, which make them responsive to interferon-γ for proliferation, were cultured and allowed to grow to 80% confluence at 33° C. (designated as day 0). Cells were then thermoshifted to 37° C., causing inactivation of the SV40 T antigen and cessation of cell replication. Podocytes were cultured at different glucose concentrations (normal glucose: 5 mM [NG]; high glucose: 30 mM [HG]) for 5 days. Mannitol was used as an osmotic control for high glucose (mannitol 20 mM+glucose 10 mM) (FIGS. 10A and 10B).
Podocytes were grown on round glass coverslips (VWR, Radnor, PA) were fixed with paraformaldehyde and then permeabilized with 0.3% Triton X-100 (Fisher Scientific, Waltham, MA). Cells were incubated with rhodamine phalloidin (Invitrogen, Carlsbad, CA) to label F-actin networks and visualize stress fibers. Standard fluorescent microscopy was used to assess stress fiber formation. The percentage of cells containing intact actin filaments was assessed by manual cell counting.

Where a name gives a salt, the structure may show the parent alone.

Turning to `C[C@@H](C(=O)NS(C)(=O)=O)c1ccc(OS(=O)(=O)C(F)(F)F)cc1` [Ladarixin, R(-)-2-[(4′-trifluoromethanesulfonyloxy)phenyl] propionyl-methanesulfonamide sodium salt], the “effect on type 1 diabetes” value in the assay on CXCR1 and CXCR2 is “able to block and revert type 1 diabetes in mice”.

With `CC(C)Cc1ccc([C@@H](C)C(=O)NS(C)(=O)=O)cc1` [Reparixin, R(-)-2-[(4-isobutylphenyl)propionyl]-methanesulfonamide], the “mesangial expansion (kidney histopathology)” value with db/db mice (db/db mice at 25 weeks of age, treated vs control mice) was “reduced mesangial expansion”. Also, in the assay on db/db mice (db/db mice at 25 weeks of age, Reparixin 15 mg/kg ip twice a day for 18 weeks, p<0.01 vs Ctrl), the “urinary albumin excretion (UAE)” value was found to be 211.1 ± 24.4 µg/mL. Further, in the assay on db/db mice (db/db mice, weeks 8, 12 and 25, Reparixin 15 mg/kg ip twice a day), the “urinary albumin levels over time” value is recorded as “remained stable over time”. Further, the “effect on glycemic control” value in the assay on db/db mice (db/db mice, Reparixin 15 mg/kg ip twice a day for 18 weeks) is on record as “No effect”. The “rescue from IL8 induced damage (loss of stress fibers; increase cortical actin; cell blebbing; loss of synaptopodin expression)” value in the assay on Human podocyte cells (reparixin 100 μM, IL8 100 nM, normal glucose and high glucose) is given as “able to rescue podocytes from IL8 induced damage”.

Turning to “IL8: Interleukin-8 chemokine, ligand of CXCR1 and CXCR2, used as challenge on podocytes”, the “stress fibers (phalloidin staining)” value with Human podocyte cells (IL8 100 nM, NG and HG, Ctrl vs. IL8 p<0.05) is reported as “loss of stress fibers”. In addition, in the assay with Human podocyte cells (IL8 treatment, NG and HG), the cell morphology result was “cell blebbing” and the cortical actin result was “dose dependent increase in cortical actin”.

These data come from patent publication US12097172B2, “Prevention and treatment of diabetic nephropathy” (THE CHILDREN'S MEDICAL CENTER CORPORATION, priority 2016, dated 2024).
